Data published in ChEMBL document CHEMBL5518248, “Design, Synthesis, and Biological Evaluation of Novel Arylomycins against Multidrug-Resistant Gram-Negative Bacteria” (J Med Chem, 2024).
pIC50: −log10 of the molar value. Activity calls are given as the source filed them. No cut-off for these calls is given here.

Key:
[1] = Volume of distribution at steady state in Sprague-Dawley rat at 10 mg/kg, iv measured upto 24 hrs LC-MS/MS analysis; assay type: ADME, organism-based; settings: in vivo, read-out: Vdss
[2] = AUC (0 to t) in Sprague-Dawley rat at 10 mg/kg, iv measured upto 24 hrs LC-MS/MS analysis; assay type: ADME, organism-based; settings: in vivo; for AUC(0-t) at 24 h: Sprague-Dawley
[3] = MRT in Sprague-Dawley rat at 10 mg/kg, iv measured upto 24 hrs LC-MS/MS analysis; assay type: ADME, organism-based; settings: in vivo
[4] = Clearance in Sprague-Dawley rat at 10 mg/kg, iv measured upto 24 hrs LC-MS/MS analysis; assay type: ADME, organism-based; settings: in vivo
[5] = Half life in Sprague-Dawley rat at 10 mg/kg, iv measured upto 24 hrs LC-MS/MS analysis; assay type: ADME, organism-based; settings: in vivo
Jurkat [6] = test: Cytotoxicity against human Jurkat cells assessed as inhibition of cell growth at 100 uM incubated for 24 hrs by CCK8 method relative to control; assay type: functional
Escherichia coli [7] = test: Antibacterial activity against Escherichia coli 14-4 assessed as inhibition of bacterial growth measured after 18 to 20 hrs by broth microdilution method; assay type: functional; settings: time 18-20 hrs
Pseudomonas aeruginosa [8] = test: Antibacterial activity against Pseudomonas aeruginosa 17-1 assessed as inhibition of bacterial growth measured after 18 to 20 hrs by broth microdilution method; assay type: functional; settings: time 18-20 hrs
Klebsiella pneumoniae [9] = test: Antibacterial activity against Klebsiella pneumoniae 15-1 assessed as inhibition of bacterial growth measured after 18 to 20 hrs by broth microdilution method; assay type: functional; settings: time 18-20 hrs
Pseudomonas aeruginosa [10] = test: Antibacterial activity against Pseudomonas aeruginosa T-2022 assessed as inhibition of bacterial growth measured after 18 to 20 hrs by broth microdilution method; assay type: functional; settings: time 18-20 hrs
Jurkat [11] = test: Cytotoxicity against human Jurkat cells assessed as inhibition of cell growth incubated for 24 hrs by CCK8 method; assay type: functional, cell-based
[12] = Tmax in Sprague-Dawley rat at 10 mg/kg, po measured upto 24 hrs LC-MS/MS analysis; assay type: ADME, organism-based; settings: in vivo
[13] = AUC (0 to t) in Sprague-Dawley rat at 10 mg/kg, po measured upto 24 hrs LC-MS/MS analysis; assay type: ADME, organism-based; settings: in vivo, po, 10 mg/kg, 24 h
[14] = MRT in Sprague-Dawley rat at 10 mg/kg, po measured upto 24 hrs LC-MS/MS analysis; assay type: ADME, organism-based; settings: in vivo
[15] = Cytotoxicity against HEK293T cells assessed as inhibition of cell growth at 100 uM incubated for 24 hrs by CCK8 method relative to control; assay type: toxicity, cell-based, HEK-293T; settings: human
Acinetobacter baumannii [16] = test: Antibacterial activity against Acinetobacter baumannii; assay type: functional
Pseudomonas aeruginosa [17] = test: Antibacterial efficacy against multi drug resistant Pseudomonas aeruginosa T-2022-D2-048 infected in cyclophosphamide-induced neutropenic thigh infection ICR mouse model assessed as decrease in bacterial burden administered as iv dose measured after 24 hrs; assay type: functional, organism-based; settings: dose 3-12 mg/kg
Pseudomonas aeruginosa [18] = test: Antibacterial activity against Pseudomonas aeruginosa 19-5 assessed as inhibition of bacterial growth measured after 18 to 20 hrs by broth microdilution method; assay type: functional; settings: time 18-20 hrs
HepG2 [19] = test: Cytotoxicity against human HepG2 cells assessed as inhibition of cell growth incubated for 24 hrs by CCK8 method; assay type: functional, cell-based; settings: HepG2, 24 h
Escherichia coli [20] = test: Antibacterial activity against Escherichia coli 14-2 assessed as inhibition of bacterial growth measured after 18 to 20 hrs by broth microdilution method; assay type: functional; settings: time 18-20 hrs
Acinetobacter baumannii [21] = test: Antibacterial activity against Acinetobacter baumannii 17-8 assessed as inhibition of bacterial growth measured after 18 to 20 hrs by broth microdilution method; assay type: functional; settings: time 18-20 hrs
[22] = Half life in Sprague-Dawley rat at 10 mg/kg, po measured upto 24 hrs LC-MS/MS analysis; assay type: ADME, organism-based; settings: in vivo
HepG2 [23] = test: Cytotoxicity against human HepG2 cells assessed as inhibition of cell growth at 100 uM incubated for 24 hrs by CCK8 method relative to control; assay type: functional
[24] = Oral bioavailability in Sprague-Dawley rat at 10 mg/kg measured upto 24 hrs LC-MS/MS analysis; assay type: ADME, organism-based; settings: in vivo, po, 10 mg/kg, 24 h
Escherichia coli [25] = test: Antibacterial activity against Escherichia coli ATCC 35218 assessed as inhibition of bacterial growth measured after 18 to 20 hrs by broth microdilution method; assay type: functional; settings: time 18-20 hrs
[26] = Cmax in Sprague-Dawley rat at 10 mg/kg, po measured upto 24 hrs LC-MS/MS analysis; assay type: ADME, organism-based; settings: in vivo
Acinetobacter baumannii [27] = test: Antibacterial activity against Acinetobacter baumannii 17-2 assessed as inhibition of bacterial growth measured after 18 to 20 hrs by broth microdilution method; assay type: functional; settings: time 18-20 hrs
Klebsiella pneumoniae [28] = test: Antibacterial activity against Klebsiella pneumoniae 15-5 assessed as inhibition of bacterial growth measured after 18 to 20 hrs by broth microdilution method; assay type: functional; settings: time 18-20 hrs
[29] = Cytotoxicity against HEK293T cells assessed as inhibition of cell growth incubated for 24 hrs by CCK8 method; assay type: toxicity, cell-based, HEK-293T; settings: human
Pseudomonas aeruginosa [30] = test: Antibacterial activity against Pseudomonas aeruginosa; assay type: functional
Klebsiella pneumoniae [31] = test: Antibacterial activity against Klebsiella pneumoniae 15-4 assessed as inhibition of bacterial growth measured after 18 to 20 hrs by broth microdilution method; assay type: functional; settings: time 18-20 hrs

CCCCSSCc1ccc(-c2ncc(C(=O)N[C@@H](CCN)C(=O)N(C)[C@@H]3C(=O)N[C@@H](C)C(=O)N[C@H](C(=O)NCC#N)Cc4ccc(OCCN)c(c4)-c4cc3ccc4OCCN)c(C)n2)cc1
Vd [1]: 0.273 L/kg | AUC(0-t) at 24 h [2]: 46300 ng·h/mL | MRT [3]: 1.27 h | clearance [4]: 3.6 mL/min/kg | half-life [5]: 1.04 h

Cc1nc(-c2ccc(SSC(C)(C)C)cc2)ncc1C(=O)N[C@@H](CCN)C(=O)N(C)[C@@H]1C(=O)N[C@@H](C)C(=O)N[C@H](C(=O)NCC#N)Cc2ccc(OCCN)c(c2)-c2cc1ccc2OCCN
Vd [1]: 0.252 L/kg | AUC(0-t) at 24 h [2]: 170000 ng·h/mL | MRT [3]: 4.4 h | clearance [4]: 0.954 mL/min/kg | half-life [5]: 2.8 h

Cc1nc(-c2ccc(C(C)(C)C)cc2)ncc1C(=O)N[C@@H](CCN)C(=O)N(C)[C@@H]1C(=O)N[C@@H](C)C(=O)N[C@H](C(=O)NCC#N)Cc2ccc(OCCN)c(c2)-c2cc1ccc2OCCN.Cl.Cl.Cl.Cl
inhibition at 100 µM (Jurkat [6]): 20.8% | Vd [1]: 0.423 L/kg | MIC (Escherichia coli [7]): ≤ 0.03 µg/mL | MIC (Pseudomonas aeruginosa [8]): 32 µg/mL | MIC (Klebsiella pneumoniae [9]): ≤ 0.03 µg/mL | MIC (Pseudomonas aeruginosa [10]): 8 µg/mL | pIC50 (Jurkat [11]): < 4.00 | Tmax [12]: 1.17 h | AUCt ([2]; iv, 10 mg/kg, 24 h): 61496 ng·h/mL | AUCt [13]: 9.01 ng·h/mL | MRT [14]: 2.69 h | inhibition at 24 h, 100 µM [15]: 37.9% | MIC90 (Acinetobacter baumannii [16]): 4 µg/mL | MRT [3]: 2.62 h | Activity (Pseudomonas aeruginosa [17]): inactive | MIC (Pseudomonas aeruginosa [18]): 16 µg/mL | clearance [4]: 2.71 mL/min/kg | pIC50 (HepG2 [19]): < 4.00 | MIC (Escherichia coli [20]): ≤ 0.03 µg/mL | MIC (Acinetobacter baumannii [21]): 1 µg/mL | half-life [22]: 1.56 h | inhibition at 100 µM (HepG2 [23]): -3.46% | F [24]: 0.1% | MIC (Escherichia coli [25]): ≤ 0.03 µg/mL | Cmax [26]: 3.37 ng/mL | MIC (Acinetobacter baumannii [27]): 2 µg/mL | MIC (Klebsiella pneumoniae [28]): 0.06 µg/mL | IC50 at 24 h [29]: > 100 µM | half-life [5]: 1.51 h | MIC90 (Pseudomonas aeruginosa [30]): 16 µg/mL | MIC (Klebsiella pneumoniae [31]): 0.125 µg/mL

Cc1nc(-c2ccc(CSSC(C)(C)C)cc2)ncc1C(=O)N[C@@H](CCN)C(=O)N(C)[C@@H]1C(=O)N[C@@H](C)C(=O)N[C@H](C(=O)NCC#N)Cc2ccc(OCCN)c(c2)-c2cc1ccc2OCCN
Activity (Pseudomonas aeruginosa [17]): Dose-Dependent Effect

C[C@H]1COc2c(N3CCN(C)CC3)c(F)cc3c(=O)c(C(=O)O)cn1c23 [LEVOFLOXACIN ANHYDROUS]
MIC (Pseudomonas aeruginosa [10]): > 64 µg/mL

CCCCSSCc1ccc(-c2ncc(C(=O)N[C@@H](CCN)C(=O)N(C)[C@@H]3C(=O)N[C@@H](C)C(=O)N[C@H](C(=O)NCC#N)Cc4ccc(OCCN)c(c4)-c4cc3ccc4OCCN)c(C)n2)cc1.O=C(O)C(F)(F)F.O=C(O)C(F)(F)F.O=C(O)C(F)(F)F.O=C(O)C(F)(F)F
inhibition at 100 µM (Jurkat [6]): 50.6% | MIC (Escherichia coli [7]): ≤ 0.03 µg/mL | MIC (Pseudomonas aeruginosa [8]): 8 µg/mL | MIC (Klebsiella pneumoniae [9]): ≤ 0.03 µg/mL | pIC50 (Jurkat [11]): < 4.00 | inhibition at 24 h, 100 µM [15]: 41% | MIC (Pseudomonas aeruginosa [18]): 8 µg/mL | pIC50 (HepG2 [19]): < 4.00 | MIC (Escherichia coli [20]): ≤ 0.03 µg/mL | MIC (Acinetobacter baumannii [21]): 0.125 µg/mL | inhibition at 100 µM (HepG2 [23]): -3.33% | MIC (Escherichia coli [25]): ≤ 0.03 µg/mL | MIC (Acinetobacter baumannii [27]): 0.5 µg/mL | MIC (Klebsiella pneumoniae [28]): ≤ 0.03 µg/mL | IC50 at 24 h [29]: > 100 µM | MIC (Klebsiella pneumoniae [31]): ≤ 0.03 µg/mL
